One data set relates to LPS-stimulated rats. The experiment in a line: Endotoxin-induced uveitis in rats (assay vi). Type of data set: in vivo, Lewis rats. As to conditions: rats treated with intravitreal LPS, result in words. The procedure:
Male, Lewis rats (6-8 weeks old, Charles River UK Limited) are housed in cages of 3 at 19-21° C. with a 12 h light/dark cycle (07:00/19:00) and fed a standard diet of rodent chow and water ad libitum. Non-fasted rats are weighed, individually identified on the tail with a permanent marker, and receive a single intravitreal administration into the right vitreous humor (5 μL dose volume) of 100 ng/animal of LPS (Escherichia coli 0111:B4 prepared in PBS, Sigma Aldrich, UK) using a 32-gauge needle. Untreated rats are injected with PBS. Test compound or vehicle (4% polyoxyl 40 stearate, 4% mannitol in PBS (pH 7.4)) are administered by the topical route onto the right eye (10 μL) of animals 1 hour prior to LPS, at the time of LPS administration, and 1, 2 and 4 hours post LPS administration. Before administration, the solution to be administered is sonicated to ensure a clear solution. 6 hours after LPS dosing, animals are euthanized by overdose with pentobarbitone (via cardiac puncture). Immediately after euthanasia, 10 μL of aqueous humor is collected from the right eye of the rats by puncture of the anterior chamber using a 32 gauge needle under a surgical microscope. The aqueous humor is diluted in 20 μL of PBS and total cell counts are measured immediately using a Countess automated cell counter (Invitrogen). […]

A short description of data set [1]: Stability of pharmaceutical formulations (1 mg/mL solutions). The conditions noted are these: for Purity (%) at week n = 1: week 1; for Purity (%) at week n = 4: week 4. The format is physicochemical. How it is done:
The samples were sonicated to achieve clear solutions having the following properties: Osmolality (mOsm/kg): 310 (Na), 314 (HCl); pH: 7.00 (Na), 7.05 (HCl). 0.5 mL of the stock solutions were diluted to 1 mL with 20% DMSO in water & injected for purity analysis by HPLC. The remaining stock solutions were then split into aliquots of 0.5 mL in HPLC vials, and stored at various conditions in duplicate. Samples were stored at 5 and 25° C., before being analysed by HPLC at 1, 2 and 4 weeks. Separate samples were stored at 40° C. and analysed at 4 weeks.

For data set [2], the system named is Escherichia coli WP2 uvrA. The experiment in a line: Bacterial reverse mutation screen (plate incorporation, ±S-9). The conditions noted are these: for mutagenic effects (revertant numbers): presence and absence of S-9 mix.
For data set [3] the following is noted: 0.1 and 1.0 mg/mL, four daily ocular instillations, rabbits.
For data set [4], the system named is Salmonella typhimurium strains TA1535, TA1537, TA98 and TA100. The experiment in a line: Bacterial reverse mutation screen (plate incorporation, ±S-9). The conditions noted are these: for mutagenic effects (revertant numbers): TA1535, TA1537, TA98, TA100, presence and absence of S-9 mix; for toxicity to the bacteria (mean colony count): at the highest doses (500-5000 μg/plate), some strains.

A further data set deals with non-mutant kinases. The format is binding. The conditions noted are these: for KinomeScan Selectivity Score S(1): fraction of non-mutant kinases with % Ctrl <1; for KinomeScan Selectivity Score S(10): fraction of non-mutant kinases with % Ctrl <10. The source says: These assays may be conducted by DiscoverX (formerly Ambit; San Diego, Calif.).
Data set [5] in a line: Hydrolytic stability study in DMSO/water (3:1) at 60 °C. The format is physicochemical. As to conditions: DMSO/water 3:1, 1 mg/mL, result in words. The procedure:
Flow rate 2.5 mL/min. Column Oven Temperature 40° C. […] The peak area for the test compound was recorded following manual integration of the corresponding UV trace. • The test solution was heated to 60° C., with stirring, and 50 μL aliquots removed for HPLC analysis at 5 and 24 h timepoints.

Counter-ions that a name gives are not always drawn. Like-named read-outs stand apart in the source and are kept apart here.

Consider `COc1cc(Nc2cc(Oc3ccc(NC(=O)Nc4cc(C(C)(C)C)cc(NS(C)(=O)=O)c4OC)c4ccccc34)ccn2)ccc1C(=O)O` [Example 1, 4-((4-((4-(3-(5-(tert-Butyl)-2-methoxy-3-(methylsulfonamido)phenyl)ureido)naphthalen-1-yl)oxy)pyridin-2-yl)amino)-2-methoxybenzoic acid], for which, in the data set with LPS-stimulated rats, the “cellular infiltration (cell counts) in the eyes” value was “significantly and dose-dependently reduced cellular infiltration”; the “cytokine IL-1β levels in anterior and posterior segments of the eyes” value was “significantly and dose-dependently reduced”. The stability in solution entry in data set [1] (1 mg/mL Na and HCl salts in pH 7.2 phosphate buffer, 4.5% mannitol, 3% polyoxyl 40 stearate) was “stable in solution at 5 °C”. In addition, the “mutagenic effects (revertant numbers)” value in data set [2] is “absence of any mutagenic effects”. In data set [3] (Phase 1: one treatment day), the “local tolerability of the formulations” value is listed as “acceptable after a single dosing day”; the “ocular reactions compared with vehicle controls” value was “no differences in the frequency, severity and incidence between the Example 1-treated animals and the vehicle controls”. The “local tolerability of the formulations” value in data set [3] (Phase 2: three consecutive treatment days) is recorded as “acceptable without any aggravation for the 3 treatment days”. Moreover, in data set [4], the “mutagenic effects (revertant numbers)” value was “absence of any mutagenic effects” and the “toxicity to the bacteria (mean colony count)” value is on record as “reduction in the mean colony count”.
`COc1cc(Nc2cc(Oc3ccc(NC(=O)Nc4cc(C(C)(C)C)cc(NS(C)(=O)=O)c4OC)c4ccccc34)ccn2)ccc1C(=O)O.Cl` [Example 1, hydrochloride salt]: the “Purity (%) at week n = 1” value in data set [1] (1 mg/mL solution, Sample 1, 25° C.) was determined as 98.0%; in data set [1] (1 mg/mL solution, Sample 2, 25° C.), 98.0%. For the same compound, the “Purity (%) at week n = 2” value in data set [1] (1 mg/mL solution, Sample 2, 5° C., week 2) was found to be 98.0%. Moreover, the “Purity (%) at week n = 4” value in data set [1] (1 mg/mL solution, Sample 2, 5° C.) came out at 98.0%.
`COc1cc(Nc2cc(Oc3ccc(NC(=O)Nc4cc(C(C)(C)C)cc(NS(C)(=O)=O)c4OC)c4ccccc34)ccn2)ccc1C(=O)O` [Example 1, sodium salt]: the “Purity (%) at week n = 4” value in data set [1] (1 mg/mL solution, Sample 1, 40° C.) is reported as 76.0%.
For the compound `COc1cc(Nc2cc(Oc3ccc(NC(=O)Nc4cc(C(C)(C)C)cc(NS(C)(=O)=O)c4OC)c4ccccc34)ccn2)cc(OC)c1C(=O)NCCOCCOCCO` [Example 36, 4-((4-((4-(3-(5-(tert-butyl)-2-methoxy-3-(methylsulfonamido)phenyl)ureido)naphthalen-1-yl)oxy)pyridin-2-yl)amino)-N-(2-(2-(2-hydroxyethoxy)ethoxy)ethyl)-2,6-dimethoxybenzamide], in the data set with non-mutant kinases (50 nM), the “KinomeScan Selectivity Score S(1)” value came to 0.002 and the “KinomeScan Selectivity Score S(10)” value turned out to be 0.050. Moreover, the “KinomeScan Selectivity Score S(1)” value in the data set with non-mutant kinases (500 nM) is recorded as 0.079.
Turning to `COc1cc(Nc2cc(Oc3ccc(NC(=O)Nc4cc(C(C)(C)C)cc(NS(C)(=O)=O)c4OC)c4ccccc34)ccn2)ccc1P(C)(=O)O` [Example 44, (4-((4-((4-(3-(5-(tert-Butyl)-2-methoxy-3-(methylsulfonamido)phenyl)ureido)naphthalen-1-yl)oxy)pyridin-2-yl)amino)-2-methoxyphenyl)(methyl)phosphinic acid], the “toxicity to the bacteria (mean colony count)” value in data set [2] (5000 μg/plate, absence of S-9 mix) is given as “reduction in the mean colony count”; in data set [4], “reduction in the mean colony count”. For the same compound, the “mutagenic effects (revertant numbers)” value in data set [2] and in data set [4] was “absence of any mutagenic effects” in each case.
`COc1cc(Nc2cc(Oc3ccc(NC(=O)Nc4cc(C(C)(C)C)cc(NS(C)(=O)=O)c4OC)c4ccccc34)ccn2)cc(OC)c1C(=O)NCCOCCOCCOP(=O)(O)O` [Example 47, 2-(2-(2-(4-((4-((4-(3-(5-(tert-butyl)-2-methoxy-3-(methylsulfonamido)phenyl)ureido)-naphthalen-1-yl)oxy)pyridin-2-yl)amino)-2,6-dimethoxybenzamido)ethoxy)ethoxy)ethyl dihydrogen phosphate]: the “KinomeScan Selectivity Score S(10)” value in the data set on non-mutant kinases (50 nM) stood at 0.042. Moreover, the “KinomeScan Selectivity Score S(1)” value in the data set with non-mutant kinases (500 nM) was determined as 0.074.
As to `C#Cc1cc(Nc2nccc(Oc3ccc(NC(=O)Nc4cc(C(C)C)nn4-c4ccc(C)cc4)c4ccccc34)n2)cc(C(=O)NCCN2CCOCC2)c1` [Reference Compound B, 3-ethynyl-5-((4-((4-(3-(3-isopropyl-1-(p-tolyl)-1H-pyrazol-5-yl)ureido)naphthalen-1-yl)oxy)pyrimidin-2-yl)amino)-N-(2-morpholinoethyl)benzamide], the “decomposition under the conditions of the hydrolytic stability study” value in data set [5] is listed as “underwent substantial decomposition”.

The values are drawn from patent US10941115B2, “Kinase inhibitors” (Oxular Acquisitions Limited, priority 2014, dated 2021).
